Experimental data from patent US20180207228A1, “PEPTIDE COMBINATIONS AND USES THEREOF FOR TREATING GRASS ALLERGY” (ALK-Abelló A/S, priority 2015, published 2018).
Where no end group is shown, it is not given here.

Legend:
Assay type in all cases: cell-based, human
[1] = test system: release of IFN-γ upon T cell activation; test: Fluorospot assay, IFN-γ release (DK1-TCL01, US1-TCL01); conditions: head prints TCL-02 DK1; 17 TCL-01 DK1 lines
Protocol: (§1) Grass allergic donors were recruited (cohort DK1 including 30 grass allergic individuals, DK2 including 24 grass allergic individuals and US1 including 15 grass allergic individuals). PBMCs were isolated from freshly drawn heparinized blood by gradient centrifugation on lymphoprep (Nycomed, Norway), washed twice and re-suspended in RPMI 1640 medium with HEPES and ultraglutamine (Cambrex, Belgium) supplemented with 5% v/v human AB-serum (Cambrex, Belgium), 100 units/ml penicillin, and 0.1 mg/ml streptomycin (Sigma, St Louis, USA) (referred to as 5% AB-medium). Aliquots of the isolated PBMCs were frozen and were thawed later to stimulate the T cell lines. Additionally either fresh or thawed PBMCs were used as antigen presenting cells (APCs) in the proliferation assay as described later. In some cases the PBMCs were freezed at this stage and thawed later on to continue the experiment as described in the following. The isolated PBMCs (fresh or thawed) were CD8 depleted by MACS magnetic depletion according to the manufacturer's instructions (Miltenyi Biotec, Bergisch Gladbach, Germany). On day 0 the CD8-depleted PBMCs (2×10^6/ml) were stimulated in 1 ml bulk cultures in AB medium in 24 well plates (Nunc, Denmark) with the mixture of natural allergens: nPhl p 1 (0.5 μg/ml), mix of nPhl p 2/nPhl p 3 (1.0 μg/ml), nPhl p 4 (0.5 μg/ml), nPhl p 5 (0.5 μg/ml) and nCyn d 1 (0.5 μg/ml). Amount of 65 U, 30 U, and 30 U recombinant IL-2 (Chiron, USA) were added per well at days 5, 6 and 7, respectively. On day 14 cells were harvested to obtain T cell line generation 01 (referred to as TCL01).
(§2) On day 14 the T cells of TCL01 were isolated, washed and counted. The isolated T cells of TCL01 generation were used to perform either ELISpot or Fluorospot assay. TCL01 were further re-stimulated as described in the next paragraph for use in T cell proliferation. The aliquot for use in T cell proliferation was re-stimulated on day 14 to carry out proliferation experiment at day 24.
(§3) In the Fluorospot assays, release of IL-5 and IFN-γ upon T cell activation (of donor derived lines DK1-TCL01, and US1-TCL01) with a peptide or a peptide-mix described herein was measured by Fluorospot assay kit (Mabtech AB) and procedures were followed as per manufacturer's instructions. Briefly anti-human IL-5 and anti-human IFN-γ coated 96 well plates were obtained and blocked with 10% AB serum in RPMI. The plates were washed thoroughly and the isolated T cells were plated and incubated with either single peptides (2 μg/ml) or peptide mixes (2 μg/ml), or allergens nPhl p1, nPhl p 2, nPhl p 3, nPhl p 4, nPhl p 5, Cyn d 1 at 2 μg/ml for 20 hrs/37° C./5% CO2. After the incubation time the cells were removed by emptying the plate. Detection antibodies 7-B6-1-FS-FITC (1:200) and 5A10-biotin (2 μg/ml) were diluted in PBS-0.1% BSA and were added to the plate and incubated for 2 hours/room temperature (RT). There-after the plates were washed and anti-FITC-green (1:200) and SA-Red (1:200) diluted in PBS±0.1% BSA were added and incubated for 1 hour/RT/dark. After the incubation period the plates were washed, emptied and fluorescence enhancer solution was added for 15 minutes/RT. Plates were emptied, fluorescence enhancer solution was firmly tapped out against a clean paper, soft plastic under drain was removed and the plates were left in the dark to dry. The counts were inspected in a fluorospot reader. Hit criteria for peptide were 20 SFCs/10^6 PBMCs, p≤0.05 and poisson 0.05 stimulated cells compared to background, and a stimulation index (SI)≥2.
(§4) The peptides were identified as hits if they fulfilled the criteria as mentioned below where stimulation index (SI) value of 2 or above, Poisson value=<0.05 and P value=<0.05, SFC>=20 (IL-5/IFN-g)/10^6 cells and CPM>=1000 (proliferation) SI can be defined as [[…]/medium control] in a Fluorospot assay and [counts per minute (cpm)/medium control] in a proliferation assay.

[2] = test system: release of IL-5 upon T cell activation; test: Fluorospot assay, IL-5 release (DK1-TCL01, US1-TCL01); conditions: head prints TCL-02 DK1; text: 25 TCL-01 DK1 lines
Protocol: as §1, §2, §3, §4

[3] = test system: allergen specific T cells; test: T cell proliferation assay (72 h) on donor derived T cell lines (TCL02/TCL03); conditions: for Proliferation % donor coverage (TCL-02 DK1): T cell lines TCL-02 DK1, 30 donors, hit criteria SI>=2, CPM>=1000; for Proliferation strength (TCL-02 DK1): T cell lines TCL-02 DK1, strength of response (average relative magnitude)
Summary of the method: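 Overlapping 20-mer and selected 15-mer grass allergen peptides were screened for proliferation using TCL02 (day 24) or TCL03 (day 34) lines. Lines came from grass-allergic donors' CD8-depleted PBMCs, primed with natural allergen mix and expanded with irradiated autologous or allogeneic APCs, PHA-P 0.5 μg/ml and rIL-2.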

Substance	IFN-gamma % donor coverage (TCL-02 DK1) [1] [%]	IL-5-Fluorospotr % donor coverage (TCL-02 DK1) [2] [%]	Proliferation % donor coverage (TCL-02 DK1) [3] [%]	Proliferation strength (TCL-02 DK1) [3]
AGYTPAAPAGAEPAGKATTE-OH [compound 61]	0.00	16.00	26.67	3.40
AIGDKPGPNITATYGSKWLE-OH [compound 89]	0.00	0.00	6.67	1.10
AMSEAQKAAKPAAAATATAT-OH [compound 86]	0.00	0.00	10.00	1.40
ASGYKDVDKPPFDGMTASGN-OH [compound 93]	0.00	0.00	16.67	2.40
AVKPAAEEVKVIPAGELQVI-OH [compound 81]	0.00	0.00	20.00	2.60
AYKTAEGATPEAKYDAYVAT-OH [compound 79]	0.00	0.00	26.67	3.30
DGKARTAWVDSGAQLGELYY-OH [compound 54]	4.00	4.00	26.67	4.20
DKYRTFVATFGAASNKAFAE-OH [compound 64]	0.00	16.00	36.67	6.00
EAAFNNAIKASTGGAYESYK-OH [compound 83]	0.00	0.00	10.00	0.90
EAKYDAYVATLSEALRIIAG-OH [compound 66]	0.00	20.83	46.67	11.20
EGTKVTFHVEKGSNPNYLAL-OH [compound 24]	4.00	16.00	36.67	7.40
EIKSTKPEASSGEPVVVHIT-OH [compound 3]	8.00	8.00	36.67	3.40
ELTLQFRRVKSKYPSGTKIT-OH [compound 102]	8.00	4.00	33.33	4.70
EPIFKDGLGSRASYEIKSKE-OH [compound 95]	4.00	0.00	20.00	2.20
EQKLIEKINAGFKAALAAAA-OH [compound 62]	0.00	4.00	36.67	6.20
EVELREHGSDEWVAMTKGEG-OH [compound 33]	0.00	0.00	0.00	0.00
EWVAMTKGEGGVWTFDSEEP-OH [compound 27]	4.00	8.00	13.33	2.30
FAVVDLNKMRAVWVDGKART-OH [compound 47]	8.00	0.00	40.00	6.20
FRRVKSKYPEGTKVTFHVEK-OH [compound 23]	0.00	4.00	20.00	1.60
GAASNKAFAEGLSGEPKGAA-OH [compound 76]	0.00	0.00	16.67	1.60
GDEQKLRSAGELELQFRRVK-OH [compound 6]	4.00	20.00	46.67	7.10
GFGMLLRKYGIAAENVIDVK-OH [compound 48]	15.00	4.00	30.00	4.70
GFKAALAAAAGVPPADKYRT-OH [compound 63]	0.00	12.00	26.67	4.10
GGASGYKDVDKPPFSGMTGS-OH [compound 18]	0.00	0.00	16.67	2.30
GNTPIFKSGRGSGSSFEIKS-OH [compound 20]	0.00	0.00	13.33	1.40
GQEDKLRKAGELTLQFRRVK-OH [compound 101]	0.00	4.00	13.33	1.20
GRGSGSSFEIKSTKPEASSG-OH [compound 2]	4.00	12.00	26.67	3.10
GRRHSVRIRVRSGGHDYEGL-OH [compound 51]	0.00	0.00	10.00	0.40
GSDPKKLVLNIKYTRPGDSL-OH [compound 36]	8.00	24.00	53.33	11.90
